# Laboratory results reported in publication PMC7340851 (Bioorganic & medicinal chemistry, 2020).
# Where two headings read alike, the source gives them in different places.
# Key:
# 5-HT2AR = 5-HT2AR (Homo sapiens, UniProt P28223); test: 5-HT2AR radioligand binding assay
# 5-HT6R = 5-HT6R (Homo sapiens, UniProt P50406); test: 5-HT6R radioligand binding assay; conditions: [3H]LSD radioligand; triplicate; na = not active (<50% inhibition in a primary assay)
# 5-HT7AR = 5-HT7AR (Homo sapiens, UniProt P34969); test: 5-HT7AR radioligand binding assay
# D5R = D5R (Homo sapiens, UniProt P21918); test: D5R radioligand binding assay; conditions: triplicate; na = not active (<50% inhibition in a primary assay)
# [1] = [3H]Ketanserin radioligand, triplicate, na = not active (<50% inhibition in a primary assay)
# D5R, sequence (P21918 whole entry): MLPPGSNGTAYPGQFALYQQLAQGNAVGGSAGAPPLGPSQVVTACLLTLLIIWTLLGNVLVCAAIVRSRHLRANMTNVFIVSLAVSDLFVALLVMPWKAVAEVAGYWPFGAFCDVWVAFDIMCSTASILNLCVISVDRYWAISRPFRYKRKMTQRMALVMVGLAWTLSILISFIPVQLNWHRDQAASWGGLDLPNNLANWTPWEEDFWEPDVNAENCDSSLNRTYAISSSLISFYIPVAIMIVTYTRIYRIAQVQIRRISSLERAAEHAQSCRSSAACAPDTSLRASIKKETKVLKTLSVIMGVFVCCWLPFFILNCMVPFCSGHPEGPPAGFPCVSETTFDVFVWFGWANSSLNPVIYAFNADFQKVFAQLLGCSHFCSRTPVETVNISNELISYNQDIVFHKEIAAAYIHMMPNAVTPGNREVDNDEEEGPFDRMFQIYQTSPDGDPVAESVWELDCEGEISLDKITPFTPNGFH
# 5-HT2AR, sequence (P28223 whole entry): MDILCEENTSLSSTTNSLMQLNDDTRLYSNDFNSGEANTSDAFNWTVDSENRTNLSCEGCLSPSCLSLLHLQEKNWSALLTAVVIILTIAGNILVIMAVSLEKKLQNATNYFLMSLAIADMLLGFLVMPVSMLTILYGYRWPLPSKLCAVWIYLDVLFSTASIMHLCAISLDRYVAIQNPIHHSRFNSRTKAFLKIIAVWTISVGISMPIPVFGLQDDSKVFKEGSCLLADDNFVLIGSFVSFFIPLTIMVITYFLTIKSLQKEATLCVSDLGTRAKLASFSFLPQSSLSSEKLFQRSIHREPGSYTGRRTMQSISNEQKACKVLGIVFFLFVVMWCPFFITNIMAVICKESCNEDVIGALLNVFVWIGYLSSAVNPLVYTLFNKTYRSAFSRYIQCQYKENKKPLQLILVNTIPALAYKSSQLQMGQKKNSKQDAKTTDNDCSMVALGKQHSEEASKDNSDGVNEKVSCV
# 5-HT7AR, sequence (P34969 1-445 isoform P34969-2): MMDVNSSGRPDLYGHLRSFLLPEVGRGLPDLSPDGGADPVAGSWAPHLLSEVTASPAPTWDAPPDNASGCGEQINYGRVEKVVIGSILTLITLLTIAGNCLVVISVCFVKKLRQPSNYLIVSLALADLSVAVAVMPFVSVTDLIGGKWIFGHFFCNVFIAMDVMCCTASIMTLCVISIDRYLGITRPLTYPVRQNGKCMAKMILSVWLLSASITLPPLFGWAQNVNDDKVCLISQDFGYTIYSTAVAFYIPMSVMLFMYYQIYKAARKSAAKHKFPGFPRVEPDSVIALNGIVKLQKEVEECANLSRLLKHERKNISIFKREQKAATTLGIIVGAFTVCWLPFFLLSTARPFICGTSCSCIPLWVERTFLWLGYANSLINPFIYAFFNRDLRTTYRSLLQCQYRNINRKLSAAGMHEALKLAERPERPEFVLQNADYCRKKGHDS
# 5-HT6R, sequence (P50406 whole entry): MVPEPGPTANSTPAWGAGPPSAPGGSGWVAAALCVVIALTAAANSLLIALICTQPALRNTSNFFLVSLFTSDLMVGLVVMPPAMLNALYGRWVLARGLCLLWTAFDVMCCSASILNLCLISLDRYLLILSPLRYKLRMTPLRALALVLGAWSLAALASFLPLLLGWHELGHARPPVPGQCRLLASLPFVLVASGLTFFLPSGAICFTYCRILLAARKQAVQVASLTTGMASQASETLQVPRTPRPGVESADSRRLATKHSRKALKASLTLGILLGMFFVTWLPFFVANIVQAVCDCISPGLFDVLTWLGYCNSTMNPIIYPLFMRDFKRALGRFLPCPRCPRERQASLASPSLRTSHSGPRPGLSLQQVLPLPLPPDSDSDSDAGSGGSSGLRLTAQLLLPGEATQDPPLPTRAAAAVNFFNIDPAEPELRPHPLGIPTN
Compound,Ki 5-HT2AR (5-HT2AR; [1]),Ki D5R (D5R),further results
"CN(C)c1ccc2c(c1)-c1cccc3c1C(C2)N(C)CC3 (centres unmarked) [Compound 31, N,N,6-trimethyl-5,6,6a,7-tetrahydro-4H-dibenzo[de,g]quinolin-10-amine]",,,Ki 5-HT2AR (5-HT2AR): fairly weak affinity; Ki 5-HT6R (5-HT6R): fairly weak affinity
"CN1CCc2cccc3c2C1Cc1ccc2nc(N)sc2c1-3 (centres unmarked) [Compound 33a, 7-methyl-6a,7,8,9-tetrahydro-6H-benzo[de]thiazolo[4’,5’:5,6]benzo[1,2-g]quinolin-2-amine]",,no affinity,selectivity for 5-HT7AR versus 5-HT1AR (5-HT7AR; ratio of binding affinities): approximately 19 fold
"CCCN1CCc2cccc3c2C1Cc1cc2sc(N)nc2cc1-3 (centres unmarked) [Compound 34b, 6-propyl-5,6,6a,7-tetrahydro-4H-benzo[de]thiazolo[5’,4’:4,5]benzo[1,2-g]quinolin-10-amine]",,lack of affinity,

# More lines, main results first:
Ki 5-HT2AR (5-HT2AR; [1]),Ki D5R (D5R),Compound,further results
lack of affinity,,"COc1cc2c3c(c1OC)-c1cc(NS(C)(=O)=O)ccc1CC3N(C)CC2 (centres unmarked) [Compound 15, N-(1,2-dimethoxy-6-methyl-5,6,6a,7-tetrahydro-4H-dibenzo[de,g]quinolin-10-yl)methanesulfonamide]",
lack of affinity,,"COc1cc2c3c(c1OC)-c1cc(NC(N)=O)ccc1CC3N(C)CC2 (centres unmarked) [Compound 19, 1-(1,2-dimethoxy-6-methyl-5,6,6a,7-tetrahydro-4H-dibenzo[de,g]quinolin-10-yl)urea]",
no affinity,,"CCCN1CCc2cccc3c2C1Cc1ccc(NC(C)=O)cc1-3 (centres unmarked) [Compound 25, N-(6-propyl-5,6,6a,7-tetrahydro-4H-dibenzo[de,g]quinolin-10-yl)acetamide]","Ki 5-HT6R (5-HT6R): no affinity; Ki 5-HT7AR (5-HT7AR; [3H]LSD radioligand, triplicate, na = not active (<50% inhibition in a primary assay)): no affinity"
,lacked affinity,"CN1CCc2cccc3c2C1Cc1ccc(NC(N)=O)cc1-3 (centres unmarked) [Compound 29, 1-(6-methyl-5,6,6a,7-tetrahydro-4H-dibenzo[de,g]quinolin-10-yl)urea]",
